Assay results reported in the METLIN SMRT retention time set (Domingo-Almenara et al. 2019).

Assay: gradient 5% acetonitrile 3 min, to 50% in 2 min, to 85% in 15 min, held 3 min, 100 µL/min
Settings: column: Zorbax Extend-C18 2.1 x 50 mm; eluents: water / acetonitrile, 0.1% formic acid
How it was run: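 In both positive and negative ionization mode, a quadrupole time-of-flight mass spectrometer coupled to HPLC analyzed pure standards run in mixtures of ~100 molecules. The Zorbax Extend-C18 column (2.1 × 50 mm, 1.8 μm) was operated at 100 μL/min with water and acetonitrile, each containing 0.1% formic acid. The dead volume was 40 μL and the dwell volume 900 μL. Retention time came from adduct peaks that were computationally picked and individually inspected by hand.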

RP-LC retention time | SMILES
787 s | O=C(NC1CC1)c1ccc(OCC2CCN(C(=O)Cc3ccc(F)cc3)CC2)cc1
833 s | CCOc1ccccc1NC(=O)N1CCCC1c1cc(CC)no1 (centres undefined)
1020 s | O=C(NCCCN1CCCc2ccccc21)c1nnc(-c2ccc(S(=O)(=O)N3CCCC3)cc2)o1
579 s | O=C(NCc1ccc2c(c1)OCO2)C1CCN(C(=O)c2cc(-c3ccncc3)n[nH]2)CC1
984 s | CCCS(=O)(=O)c1nc2ccc(NS(=O)(=O)c3ccc(Cl)cc3)cc2s1
576 s | Cc1cc(C(=O)N2CCOCC2)n(CC(=O)NCc2ccco2)n1
632 s | O=C(NCC1CCN(c2ncccn2)CC1)Nc1ccc2c(c1)OCO2
821 s | CCOC(=O)c1c(NCCc2cccs2)c2ccc(Cl)cc2[nH]c1=O
1150 s | CCCn1c(=O)c(C)nc2cc(-c3noc(-c4ccc5c(c4)OCO5)n3)ccc21
722 s | C[C@H](NC[C@H](O)CP(=O)(O)Cc1ccccc1)c1ccc(Cl)c(Cl)c1
669 s | CCC(C(=O)N1CCN(c2ccccn2)CC1)n1nc(C)c2nn(-c3ccccc3)c(C)c2c1=O (centres undefined)
1110 s | COc1ccc(Cl)cc1NC(=O)c1cc2c(=O)oc3ccccc3c2n1C
787 s | COc1ccc(NC(=O)Nc2cccn3c(C4CCC4)nnc23)c(C)c1
605 s | Cc1ccc(C)c(CNC(=O)CCNc2cnc3cnccn23)c1
633 s | CCc1ccccc1NC(=O)Cn1c(N)nc(CC)c(C)c1=O
754 s | Cc1ccc2c(c1)C1CC(C)(O2)N(c2cccc(C(=O)N3CCCC3)c2)C(=O)N1 (centres undefined)
821 s | CCOC(=O)c1c(C)c(CCC(=O)NC(C)C)n(CC)c1C
625 s | O=C(Nc1cccc(C(F)(F)F)c1)C1CCN(c2cc(-n3ccnc3)ncn2)CC1
912 s | Cc1noc(C)c1-c1ccc(S(=O)(=O)Nc2ccccc2)cc1
758 s | CCOC(=O)c1cnc2nc(C)ccc2c1Nc1ccc(Cl)cc1F
744 s | COc1ccc(N2CCN(c3nnc(-c4nnc(C)o4)c4ccccc34)CC2)cc1
1040 s | CCc1cccc(Nc2nc(C)cc(=O)n2CC(=O)Nc2ccc3c(c2)OCCO3)c1
604 s | COC[C@@H]1CN(Cc2cn[nH]c2-c2ccccc2)C[C@H]1c1ccccn1

RP-LC retention time | SMILES
589 s | CCOc1ccccc1N1C(=O)CC(N2CCC(C(N)=O)CC2)C1=O (centres undefined)
674 s | COc1cccc(NC(=O)CCC2CCN(c3cc(NC4CC4)ncn3)CC2)c1
681 s | O=C(NC1CC1)C1CCN(c2cnn(Cc3ccccc3)c(=O)c2)CC1
1160 s | Cc1ccc(NC(=O)N2CCc3nc(-c4ccc(Cl)cc4)ncc3C2)cc1C
818 s | C=CCn1c(C)c(CC(=O)NC(C)CC)c(=O)n2nc(-c3ccccc3)nc12 (centres undefined)
1070 s | Cc1ccc(CC(=O)N2CCc3cc(-c4csc(C)n4)ccc32)cc1
572 s | CN(C)c1ccc(C(CNC(=O)c2ccc(Br)o2)N2CCCC2)cc1 (centres undefined)
964 s | O=S1(=O)CCN(c2ccccc2CC(c2c[nH]c3ccccc23)c2c[nH]c3ccccc23)CC1
772 s | Cc1ccc(C(=O)CC2(O)C(=O)Nc3ccc(Cl)cc32)cc1C (centres undefined)
951 s | CCOc1ccc(/C=C/c2nn3c(-c4cccnc4)nnc3s2)cc1
824 s | CN(C)S(=O)(=O)c1ccc(Oc2ccc(S(=O)(=O)N(C)C)cc2)cc1
706 s | O=c1n(CC2CC2)nc2n1CCC(NS(=O)(=O)Cc1ccccc1F)CC2 (centres undefined)
568 s | Cc1ccc(Nc2ccc(NC(=O)c3ccccc3F)cc2)nn1
977 s | CCN(CC)S(=O)(=O)c1cc(-c2nnc(-c3ccccc3)o2)ccc1OC
844 s | O=C(Cc1ccc(Cl)cc1)NCCOc1ccccc1
659 s | Cc1cccc(S(=O)(=O)Nc2ccc(-c3cn4cccc(C)c4n3)cc2)c1
954 s | Cc1ccc(-n2c(N3CCCC(C(=O)NCc4ccccc4C)C3)nc3ccsc3c2=O)cc1 (centres undefined)
871 s | CCC(C)Sc1nnc(NC(=O)C2CCN(C(=O)c3ccccc3F)CC2)s1 (centres undefined)
747 s | CCc1ccc(CNC(=O)C2CCN(c3cnc4nccnc4c3)CC2)cc1
671 s | C=CCNC(=O)c1ccc2c(c1)N(C)C(=O)CS2
701 s | Cc1ccc(NC(=O)C2CCN(S(=O)(=O)c3cn(C)cn3)CC2)cc1
970 s | CCCCS(=O)(=O)N1CCc2nc(-c3ccccc3)ncc2C1
770 s | Cc1cc(-c2nnc(-c3ccccc3)o2)c(C)n1CC(=O)NCC1CCCO1 (centres undefined)

RP-LC retention time | SMILES
1280 s | Cc1oc(-c2ccc(Cl)cc2)nc1COc1cc(C)c2c(C)nn(C)c2n1
968 s | Cc1cc(C)cc(NC(=O)CN2C(=O)C(C)(C)c3ccccc32)c1
597 s | O=C(Nc1cccc(Cl)c1)N1CCc2nc[nH]c2C1
651 s | Cc1cccc(Nc2nc(CC(=O)NCCOc3ccc(F)cc3)cs2)n1
648 s | Cc1cc2n(n1)CCC(=O)N2CCCC(=O)NCCc1cccs1
681 s | CC(C(=O)N1CCC(N2CCCCC2)CC1)C1CCN(S(=O)(=O)c2ccc(Cl)s2)CC1 (centres undefined)
1070 s | COc1ccc(CCNS(=O)(=O)c2cccc(-c3nc(-c4ccccc4)no3)c2)cc1OC
715 s | COc1ccc(Cl)cc1-n1nnc(C(=O)NC2CC2)c1-c1ccncc1
872 s | COc1ccc(C2CC(=O)N(c3cc(C)ccc3C)C(=O)C2)cc1OC
645 s | CCOc1ccc(-c2ccc(=O)n(CCNC(=O)c3cn(C)nc3OC)n2)cc1
775 s | CCNC(=O)CCc1nc2ccccc2n(CC(=O)Nc2ccc(OCC)cc2)c1=O
525 s | Nc1cccc(N2CCn3c(nc4ccccc43)C2)c1
705 s | O=C(Cn1c(=O)c2cc(C3CC3)nn2c2ncccc21)NC1CCCC1
630 s | COc1ccc(-c2noc(-c3ccc(N4CCN(C)CC4)nn3)n2)cc1
767 s | COc1cc(C(=O)NC2CCN(c3cc(-c4ccc(Cl)cc4)[nH]n3)C2)cc(OC)c1OC (centres undefined)
595 s | COc1cc(C(=O)N2CCC(CC(=O)N3CCN(c4ccccn4)CC3)CC2)cc(OC)c1OC
1080 s | CCCS(=O)(=O)N1CCC(F)(c2nc(-c3ccccc3)no2)CC1
735 s | CC(=O)N1CCOc2ccc(S(=O)(=O)N3CCCC3C(=O)Nc3nccs3)cc21 (centres undefined)
769 s | Cc1c(Cc2ccccc2)sc(NC(=O)C2CCCCC2C(=O)O)c1C(N)=O (centres undefined)
788 s | CCOc1ccc(NC(=O)c2c(C)oc3nc(C)nc(N4CCCC4)c23)cc1
959 s | CN(C)c1ccc(N2C=C(C(=O)N3CCCCC3)S(=O)(=O)c3ccc(F)cc32)cc1
1190 s | CCN1C(=O)c2ccccc2Oc2ccc(C(=O)N3CCN(c4cc(C)ccc4C)CC3)cc21
988 s | CC(C(=O)NCCc1c[nH]c2ccccc12)C1CCN(S(=O)(=O)c2ccc(Cl)s2)CC1 (centres undefined)

RP-LC retention time | SMILES
699 s | O=C(Cn1ncc2c3ccccc3n(Cc3ccccc3F)c2c1=O)N1CCN(c2ccccn2)CC1
980 s | Cc1nc(-c2cn(C(C)C)c3ncccc23)sc1C(=O)NCc1ccc2c(c1)OCO2
659 s | CC(C)c1nc2c(c(=O)n1CC(=O)NCc1ccccc1)CN(Cc1ccccc1)CC2
964 s | COc1ccc(-c2cc(C(=O)N3CCCC3c3cc(C)on3)no2)cc1 (centres undefined)
934 s | COCCCNC(=O)c1ccc(-c2nc(CSc3ccccc3)c(C)o2)cc1
615 s | CCS(=O)(=O)N1CCCCC1c1nc(-c2cccnc2)n[nH]1 (centres undefined)
865 s | COc1ccc(CNC(=O)c2nnc(-c3ccc(S(=O)(=O)N(C)C)cc3)o2)cc1OC
1070 s | CSc1cccc(NC(=O)Cn2cccc2-c2nc(-c3ccccc3)no2)c1
1060 s | Cc1nn(-c2ccc(F)cc2)c2sc(C(=O)NCCc3ccco3)cc12
917 s | Cc1nc(-c2ccccc2)cc2nn(CC(=O)N(C)c3ccccc3)c(=O)n12
692 s | Cc1ccn2cc(-c3ccc(NC(=O)c4cccc(Br)c4)cc3)nc2n1
667 s | COCCOCc1nc(C2CCCCN2C(=O)NC(C)C)no1 (centres undefined)
1090 s | Cc1sc(NC(=O)c2ccccc2Br)nc1-c1ccccc1
1140 s | C=CCn1c(=O)c2ccccc2n(Cc2nc(-c3ccc(C)c(C)c3)no2)c1=O
829 s | COc1ccc(N2CCN(C(=O)CN3C(=O)CCc4cc(Br)ccc43)CC2)cc1
696 s | O=C(CN1CCN(C(=O)Nc2ccccc2)CC1=O)N1CCN(c2ccccc2)CC1
822 s | O=C(CCc1nnc2c3cc(-c4ccc(F)cc4)nn3ccn12)NCc1ccc(Cl)cc1
626 s | Cc1cnc(C)n1C1CCN(S(=O)(=O)c2ccc(C#N)cc2)CC1
1110 s | O=S(=O)(c1ccccc1Cl)N1CCCC1Cc1noc(-c2ccccc2)n1 (centres undefined)
1130 s | Cc1ccc(N2C(=O)C3N=NN(Cc4nc(-c5ccc(Br)cc5)no4)C3C2=O)cc1C (centres undefined)
